Tests used:
[1] = tested on: differentiating iTreg cells; assay: iTreg differentiation of CD4 naïve T cells (FOXP3-GFP reporter or intracellular staining of FOXP3); assay type: cell-based, mouse; settings: for reversal of the enhancing effect of AOA on iTreg cell differentiation: in the presence of AOA, day 5, 0.5 mM α-KG, 0.125 mM 2-HG (0.25 mM in FIG. 2g), 0.5 mM succinate, 50 μM fumarate, 0.5 mM malate, 0.5 mM citrate
Protocol: CD4 naïve T cells (CD4+CD25-CD62^highCD44^low) were obtained from interleukin (IL)-17F-red fluorescent protein (RFP)/FOXP3-green fluorescent protein (GFP) mice, which were characterized previously, or wild-type C57/BL6 mice, by cell sorting. 0.4 million cells were plated into 48 wells coated with anti-mouse CD3 (clone 145-2C11, eBioscience) […] and anti-mouse CD28 (clone 37.51, eBioscience) (1 μg/ml). The differentiation media for these naïve T cells was as follows: 0.5 ng/ml (or indicated) transforming growth factor (TGF) β, 200 U/ml mouse IL-2, 2 μg/ml anti-interferon (IFN) γ and 2 μg/ml anti-mouse IL4 for differentiation into iTreg cells; and 2.5 ng/ml TGFβ, 10 ng/ml mouse IL-1β, 10 ng/ml mouse IL-6, 10 ng/ml mouse IL-23, 2 μg/ml anti-mouse IFNγ, and anti-mouse IL-4 for differentiating into TH17 cells. The cells were supplemented with new medium at day 4. In cases in which small-molecule compounds were present, the fresh medium containing the same concentration of compounds was used. When necessary, the individual metabolite was added into the T-cell culture 6 hours later after initial cell plating. […]

[2] = tested on: FOXP3 promoter and its intronic CpG island; assay: Methylation analysis by bisulfite sequencing, T cells under TH17 condition; assay type: cell-based, mouse; settings: 0.5 mM dimethyl R-2-HG (day 4) or AOA (day 6), male mice
Protocol: (§1) The method is essentially the same as described previously (Kim, et al. J Exp Med 204 (7), 1543-1551 (2007)). Briefly, genomic DNA was purified with Blood & Cell Culture DNA Midi Kit (Qiagen). Bisufite conversion of genomic DNA was performed using Epitect® bisulfite kit (Qiagen), according to the manufacture's instruction. The PCR product was run on 2% agarose, purified and cloned using TOPO® TA Cloning® Kit with PCR®4. Clones are picked for Sanger sequencing.

[3] = tested on: differentiating TH17 cells; assay: TH17 differentiation of CD4 naïve T cells (IL17F-RFP/FOXP3-GFP reporter or intracellular staining of IL-17 and FOXP3); assay type: cell-based, mouse; settings: for rescue of the inhibitory effect of AOA on TH17 cell differentiation: in the presence of AOA, day 6, 0.75 mM α-KG, 0.5 mM 2-HG, 0.5 mM succinate, 50 μM fumarate, 0.5 mM malate, 0.5 mM citrate, 1 mM NAC, 1 mM GSH
Protocol: CD4 naïve T cells (CD4+CD25-CD62^highCD44^low) were obtained from interleukin (IL)-17F-red fluorescent protein (RFP)/FOXP3-green fluorescent protein (GFP) mice, which were characterized previously, or wild-type C57/BL6 mice, by cell sorting. 0.4 million cells were plated into 48 wells coated with anti-mouse CD3 (clone 145-2C11, eBioscience) […] and anti-mouse CD28 (clone 37.51, eBioscience) (1 μg/ml). The differentiation media for these naïve T cells was as follows: 0.5 ng/ml (or indicated) transforming growth factor (TGF) β, 200 U/ml mouse IL-2, 2 μg/ml anti-interferon (IFN) γ and 2 μg/ml anti-mouse IL4 for differentiation into iTreg cells; and 2.5 ng/ml TGFβ, 10 ng/ml mouse IL-1β, 10 ng/ml mouse IL-6, 10 ng/ml mouse IL-23, 2 μg/ml anti-mouse IFNγ, and anti-mouse IL-4 for differentiating into TH17 cells. The cells were supplemented with new medium at day 4. In cases in which small-molecule compounds were present, the fresh medium containing the same concentration of compounds was used. When necessary, the individual metabolite was added into the T-cell culture 6 hours later after initial cell plating. On day 6, the cells were analyzed for IL17F-RFP and FOXP3-GFP or the cells were collected and restimulated for 4-6 hours with PMA, inomycin, and Golgi-stop for intracellular staining in absence of indicated compounds.
To identify small molecules that regulate cell-fate switching of TH17/iTreg cells and to further understand the regulation of the TH17/iTreg balance, 10,000 individual small molecules were phenotypically screened using CD4 naïve T cells from IL-17F-RFP/FOXP3-GFP mice. The naïve T cells were cultured under optimal TH17 differentiation conditions and compounds that could reprogram TH17 differentiation toward iTreg cell fate were identified using the reporter readout. Briefly, after TH17 differentiation for 24 hours, compounds were added to TH17 culture, and the treatment was continued for an additional 5 days before the cells were analyzed for IL17F-RFP and FOXP3-GFP expression by high-throughput fluorescence-activated cell sorting (FACS) (FIG. 5a). […] This effect of reprogrammed differentiation was further confirmed by intracellular immunostaining of IL-17 and FOXP3 (FIG. 1a).

[4] = tested on: FOXP3 promoter and its intronic CpG island; assay: Methylation analysis by bisulfite sequencing, T cells under iTreg condition; assay type: cell-based, mouse; settings: iTreg condition (day 5); 0.5 mM dimethyl R-2-HG or AOA; male mice
Protocol: as §1

[5] = tested on: FOXP3 mRNA in iTreg cells; assay: mRNA expression analysis by qRT-PCR in iTreg cells; assay type: cell-based, mouse; settings: normalized to β-actin
Protocol: (§2) At the end of differentiation (day 6), T cells were re-stimulated with plate-coated anti-CD3 and anti-CD28 for 5 hours in the absence of any small-molecule compounds or metabolites. Quantitative reverse transcriptase polymerase chain reaction (qRT-PCR) was performed to evaluate mRNA expression of FOXP3, Il17, Il17f, and Rorc. For differentiating TH17 or iTreg cells, cells were collected on day 2.5 or at the indicated time for mRNA expression analysis. The expression was normalized to β-actin.

[6] = tested on: FOXP3, Il17, Il17f, and Rorc mRNA in TH17 cells; assay: mRNA expression analysis by qRT-PCR in TH17 cells; assay type: cell-based, mouse; settings: normalized to β-actin
Protocol: as §2

Got1 = molecular target: T1, Got1 (Mus musculus, UniProt P05201); assay: Retroviral shRNA knockdown of Got1 in differentiating TH17 cells, intracellular staining of FOXP3 and IL-17; assay type: cell-based; settings: sorted GFP+ cells, TH17 condition, day 6; versus empty vector or GFP− cells
T1 construct: Got1 was knocked down in differentiating TH17 cells with retrovirus containing GFP and shRNA against Got1; endogenous in cells; host or cells: primary mouse CD4 naive T cells differentiated under TH17 conditions
T1 sequence (P05201 whole entry): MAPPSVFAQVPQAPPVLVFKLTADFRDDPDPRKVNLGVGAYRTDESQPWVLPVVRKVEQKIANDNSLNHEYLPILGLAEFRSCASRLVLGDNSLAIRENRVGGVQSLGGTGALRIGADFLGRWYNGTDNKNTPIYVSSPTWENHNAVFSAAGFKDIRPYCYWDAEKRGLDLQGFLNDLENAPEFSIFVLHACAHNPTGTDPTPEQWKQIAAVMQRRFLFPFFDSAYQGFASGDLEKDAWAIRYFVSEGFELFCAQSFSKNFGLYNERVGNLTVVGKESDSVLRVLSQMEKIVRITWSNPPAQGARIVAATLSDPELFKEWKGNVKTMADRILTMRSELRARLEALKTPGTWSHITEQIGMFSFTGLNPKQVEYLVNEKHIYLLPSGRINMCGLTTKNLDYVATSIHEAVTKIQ
Protocol: (§3) Short hairpin RNAs (ShRNAs) (synthesized DNA oligos), after annealing, were cloned into PMKO.1-GFP retrovirus vector. The plasmids and pCL-ECO (1:1) were transfected into 293T cells with Fugene® HD4 (Promega). The medium was changed 6 hours after transfection, and the cells were further cultured for 48-72 hours. The supernatant was then collected and filtered using […]. The supernatant containing the viruses was added into pre-activated CD4+ T cells (20 hours after initial plating). The cells were spin-infected at 1000 g for 2 hours and cultured in incubator for another 2 hours. The cells were washed and cultured under TH17 conditions for an additional 4 days. New medium was added if necessary. At day 5, the cells were collected for sorting GFP+ cells and GFP− cells. Sorted cells were further cultured until day 6, and re-stimulated for intracellular staining or mRNA analysis, as described above.

IDH1 and/or IDH2 mRNA = assay: mRNA expression of IDH1 and IDH2 in shRNA-infected GFP+ cells; assay type: cell-based, mouse; settings: GFP+ cells re-stimulated with anti-CD3 and anti-CD28; normalized to β-actin
Protocol: as §2
as §3, with “Sorted cells were further cultured until day 6, and re-stimulated for intracellular staining or mRNA analysis, as described above.” left out

IDH1 and IDH2 = assay: Retroviral shRNA knockdown of IDH1 and/or IDH2 in T cells under TH17 condition, intracellular staining of IL-17 and FOXP3; assay type: cell-based, mouse; settings: sorted GFP+ cells cultured under TH17 condition
Protocol: as §3
2-HG, which was originally identified in cancer cells harboring isocitrate dehydrogenase (IDH) 1/2 mutation, is also known to be produced via wild-type IDH1 and IDH2 reactions as well. Among all the dehydrogenases examined in this study, only IDH1 and 2 are highly expressed in differentiating TH17 cells (FIGS. 10a, 10d). […] GFP+ cells and GFP− cells were sorted and analyzed by intracellular staining of IL-17 and FOXP3.

[7] = re-stimulated with anti-CD3 and anti-CD28 for 5 hours

Compound	reversal of the enhancing effect of AOA on iTreg cell differentiation [1]	rescue of the inhibitory effect of AOA on TH17 cell differentiation [3]	percentage of IL17+ cells (Got1)	proportion of FOXP3+ cells (Got1)	mRNA expression of IDH1 and/or IDH2 (IDH1 and/or IDH2 mRNA)	reduction of the percentage of IL-17 producing cells (IDH1 and IDH2)	other results
COC(=O)CC[C@@H](O)C(=O)OC [Dimethyl R-2-HG, (R)-dimethyl 2-hydroxyglutarate]	reversed its enhancing effect on iTreg differentiation	rescued the inhibitory effect of AOA on TH17 differentiation					FOXP3 expression under iTreg condition ([1]; in the absence of AOA, analyzed on day 5): inhibited FOXP3 expression; methylation level of FOXP3 promoter and its intronic CpG island [2]: dramatically increase methylation level; direct effect on TH17 cell differentiation (IL-17/IL-17F and FOXP3 expression) ([3]; in the absence of AOA, exogenously added dimethyl metabolite): directly promoted TH17 cell differentiation by up-regulating IL-17/IL-17F expression and down-regulating FOXP3 expression in a dose-dependent manner; methylation level of FOXP3 promoter and its intronic CpG island [4]: dramatically increase methylation level; FOXP3 mRNA expression [5]: suppressed FOXP3 mRNA expression; FOXP3 mRNA expression [6]: suppressed FOXP3 mRNA expression; Il17/Il17f mRNA level [6, 7]: increased Il17/Il17f mRNA; Rorc mRNA level [6, 7]: did not affect Rorc mRNA
COC(=O)CCC(=O)C(=O)OC [dimethyl-α-KG]	reversed its enhancing effect on iTreg differentiation	rescued the inhibitory effect of AOA on TH17 differentiation					
GOT1-1: shRNA targeting GOT1 (SEQ ID NO: 47) in PMKO.1-GFP retrovirus vector (CCGGCCACATGAGAAGACGTTTCTTCTCGAGAAGAAACGTCTTCTCATGTGGTTTTTG)			reduced	reciprocally increased			
GOT1-2: shRNA targeting GOT1 (SEQ ID NO: 48) in PMKO.1-GFP retrovirus vector (CCGGGTCGAACAGAAGATTGCTAATCTCGAGATTAGCAATCTTCTGTTCGACTTTTTG)			reduced	reciprocally increased			
shRNA against IDH1: shRNA targeting IDH1 (SEQ ID NO: 49) in PMKO.1-GFP retrovirus vector (CCGGCCTGGGCTTAGAATGAGTCTTCTCGAGAAGACTCATTCTAAGCCCAGGTTTTTG)					efficiently suppressed the mRNA expression	approximately 30%	
shRNA against IDH2: shRNA targeting IDH2 (SEQ ID NO: 50) in PMKO.1-GFP retrovirus vector (CCGGGAAGAGTTCAAGCTGAAGAAACTCGAGTTTCTTCAGCTTGAACTCTTCTTTTTG)					efficiently suppressed the mRNA expression	approximately 30%	

Reference: patent US11241455B2, “Methods of treating disease by metabolic control of T-cell differentiation” (The J. David Gladstone Institutes, a testamentary trust …, priority 2016, dated 2022)
